Experimental data: article PMC10931740, “Uncovering the Role of Hydroxycinnamoyl Transferase in Boosting Chlorogenic Acid Accumulation in Carthamus tinctorius Cells under Methyl Jasmonate Elicitation” (International Journal of Molecular Sciences, 2024)

Tested on: T1, CtHCT (CtNewGene_3476), recombinant hydroxycinnamoyl transferase
T1 construct: gene HCT; HXXXD 156-160, DFGWG 379-383
Assay: HPLC product assay, Lineweaver-Burk
Type: biochemical, Carthamus tinctorius
Details: pH 7.5, 35 °C, 1 mM Cu2+
Text: HPLC product assay, Lineweaver-Burk on CtHCT (CtNewGene_3476), recombinant hydroxycinnamoyl transferase

Row | Compound | Km (saturating quinic acid) [µM] | Km (saturating p-coumaroyl-CoA) [µM]
1 | CC(C)(COP(=O)(O)OP(=O)(O)OC[C@H]1O[C@@H](n2cnc3c(N)ncnc32)[C@H](O)[C@@H]1OP(=O)(O)O)[C@@H](O)C(=O)NCCC(=O)NCCSC(=O)/C=C/c1ccc(O)c(O)c1 [C-COA, Caffeoyl-CoA] | 32.6 | –
2 | O=C(O)[C@]1(O)C[C@@H](O)[C@@H](O)[C@H](O)C1 [QA, Quinic acid] | – | 7.11
3 | O=C(O)C1=C[C@@H](O)[C@@H](O)[C@H](O)C1 [SkA, Shikimic acid] | – | 18.4
4 | CC(C)(COP(=O)(O)OP(=O)(O)OC[C@H]1O[C@@H](n2cnc3c(N)ncnc32)[C@H](O)[C@@H]1OP(=O)(O)O)[C@@H](O)C(=O)NCCC(=O)NCCSC(=O)/C=C/c1ccc(O)cc1 [p-CoCOA, p-Coumaroyl-CoA] | 9.41 | –
